In US20120245137A1 (Zalicus Pharmaceuticals Ltd., priority 2009, published 2012):

Legend:
[1] = target: N-type calcium channel subunits (α1B, α2δ, and β3a) (Homo sapiens, UniProt Q00975); assay: Block of Cav2.2 channel, whole cell voltage clamp, manual and PatchXpress; format: cell-based; settings: Table 5; table follows Assay Example 3 (whole cell voltage clamp / PatchXpress); assay not given
In short: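 Percent block taken as current amplitude ratio with versus without compound, applied in rising doses; IC50 fitted where one cell received multiple doses. Protocol: 50 ms pulses to +20 mV at 0.067 Hz from […] or −90 mV holding; P/n leak subtraction, no junction-potential correction; manual and PatchXpress recordings.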

T-type calcium channel = assay: T-type channel blocking activity as summarised in text (subunit not stated); format: cell-based, human; settings: Table 4
Experimental: T-type calcium channel blocking activity was assayed in human embryonic kidneycells, HEK 293 (Invitrogen), stably transfected with the T-type calcium channel subunits. Briefly, cells were cultured in Dulbecco's modified eagle medium (DMEM) supplemented with 10% fetal bovine serum, 200 U/ml penicillin, and 0.2 mg/mL streptomycin at 37° C. with 5% CO2. At 85% confluency, cells were split with 0.25% trypsin/1 mM EDTA and plated at 10% confluency on glass coverslips. At 12 hours, the medium was replaced, and the cells stably transfected using a standard calcium phosphate protocol and the appropriate calcium channel cDNA's. Fresh DMEM was supplied, and the cells transferred to 28° C./5% CO2. Cells were incubated for 1 to 2 days prior to whole cell recording.
Standard patch-clamp techniques were employed to identify blockers of T-type currents. Briefly, previously described HEK cell lines stably expressing human α1G, α1H, and α1I T-type channels were used for all the recordings (passage #: 4-20, 37° C., 5% CO2). Whole cell patch clamp experiments were performed using an Axopatch 200B amplifier (Axon Instruments, Burlingame, Calif.) linked to a personal computer equipped with pCLAMP software. Data were analyzed using Clampfit (Axon Instruments) and SigmaPlot 4.0 (Jandel Scientific). […]

[2] = target: human α1H T-type channels (Homo sapiens, UniProt O95180); assay: T-type calcium channel block, whole cell patch clamp, α1H; format: cell-based; settings: HEK cells stably expressing human α1H; mainly non-inactivated protocol; values above 10,000 nM represented as 10000
In short: (§1)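 Cells are stable HEK 293 lines carrying human α1G or α1H channels, patched in whole-cell mode. Resting block comes from the non-inactivated pre-pulse; voltage-dependent block from the inactivated protocol.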

[3] = target: human α1G T-type channels (Homo sapiens, UniProt O43497); assay: T-type calcium channel block, whole cell patch clamp, α1G; format: cell-based; settings: HEK cells stably expressing human α1G; mainly non-inactivated protocol; values above 10,000 nM represented as 10000
In short: as §1

Chain of human α1H T-type channels (O95180 whole entry): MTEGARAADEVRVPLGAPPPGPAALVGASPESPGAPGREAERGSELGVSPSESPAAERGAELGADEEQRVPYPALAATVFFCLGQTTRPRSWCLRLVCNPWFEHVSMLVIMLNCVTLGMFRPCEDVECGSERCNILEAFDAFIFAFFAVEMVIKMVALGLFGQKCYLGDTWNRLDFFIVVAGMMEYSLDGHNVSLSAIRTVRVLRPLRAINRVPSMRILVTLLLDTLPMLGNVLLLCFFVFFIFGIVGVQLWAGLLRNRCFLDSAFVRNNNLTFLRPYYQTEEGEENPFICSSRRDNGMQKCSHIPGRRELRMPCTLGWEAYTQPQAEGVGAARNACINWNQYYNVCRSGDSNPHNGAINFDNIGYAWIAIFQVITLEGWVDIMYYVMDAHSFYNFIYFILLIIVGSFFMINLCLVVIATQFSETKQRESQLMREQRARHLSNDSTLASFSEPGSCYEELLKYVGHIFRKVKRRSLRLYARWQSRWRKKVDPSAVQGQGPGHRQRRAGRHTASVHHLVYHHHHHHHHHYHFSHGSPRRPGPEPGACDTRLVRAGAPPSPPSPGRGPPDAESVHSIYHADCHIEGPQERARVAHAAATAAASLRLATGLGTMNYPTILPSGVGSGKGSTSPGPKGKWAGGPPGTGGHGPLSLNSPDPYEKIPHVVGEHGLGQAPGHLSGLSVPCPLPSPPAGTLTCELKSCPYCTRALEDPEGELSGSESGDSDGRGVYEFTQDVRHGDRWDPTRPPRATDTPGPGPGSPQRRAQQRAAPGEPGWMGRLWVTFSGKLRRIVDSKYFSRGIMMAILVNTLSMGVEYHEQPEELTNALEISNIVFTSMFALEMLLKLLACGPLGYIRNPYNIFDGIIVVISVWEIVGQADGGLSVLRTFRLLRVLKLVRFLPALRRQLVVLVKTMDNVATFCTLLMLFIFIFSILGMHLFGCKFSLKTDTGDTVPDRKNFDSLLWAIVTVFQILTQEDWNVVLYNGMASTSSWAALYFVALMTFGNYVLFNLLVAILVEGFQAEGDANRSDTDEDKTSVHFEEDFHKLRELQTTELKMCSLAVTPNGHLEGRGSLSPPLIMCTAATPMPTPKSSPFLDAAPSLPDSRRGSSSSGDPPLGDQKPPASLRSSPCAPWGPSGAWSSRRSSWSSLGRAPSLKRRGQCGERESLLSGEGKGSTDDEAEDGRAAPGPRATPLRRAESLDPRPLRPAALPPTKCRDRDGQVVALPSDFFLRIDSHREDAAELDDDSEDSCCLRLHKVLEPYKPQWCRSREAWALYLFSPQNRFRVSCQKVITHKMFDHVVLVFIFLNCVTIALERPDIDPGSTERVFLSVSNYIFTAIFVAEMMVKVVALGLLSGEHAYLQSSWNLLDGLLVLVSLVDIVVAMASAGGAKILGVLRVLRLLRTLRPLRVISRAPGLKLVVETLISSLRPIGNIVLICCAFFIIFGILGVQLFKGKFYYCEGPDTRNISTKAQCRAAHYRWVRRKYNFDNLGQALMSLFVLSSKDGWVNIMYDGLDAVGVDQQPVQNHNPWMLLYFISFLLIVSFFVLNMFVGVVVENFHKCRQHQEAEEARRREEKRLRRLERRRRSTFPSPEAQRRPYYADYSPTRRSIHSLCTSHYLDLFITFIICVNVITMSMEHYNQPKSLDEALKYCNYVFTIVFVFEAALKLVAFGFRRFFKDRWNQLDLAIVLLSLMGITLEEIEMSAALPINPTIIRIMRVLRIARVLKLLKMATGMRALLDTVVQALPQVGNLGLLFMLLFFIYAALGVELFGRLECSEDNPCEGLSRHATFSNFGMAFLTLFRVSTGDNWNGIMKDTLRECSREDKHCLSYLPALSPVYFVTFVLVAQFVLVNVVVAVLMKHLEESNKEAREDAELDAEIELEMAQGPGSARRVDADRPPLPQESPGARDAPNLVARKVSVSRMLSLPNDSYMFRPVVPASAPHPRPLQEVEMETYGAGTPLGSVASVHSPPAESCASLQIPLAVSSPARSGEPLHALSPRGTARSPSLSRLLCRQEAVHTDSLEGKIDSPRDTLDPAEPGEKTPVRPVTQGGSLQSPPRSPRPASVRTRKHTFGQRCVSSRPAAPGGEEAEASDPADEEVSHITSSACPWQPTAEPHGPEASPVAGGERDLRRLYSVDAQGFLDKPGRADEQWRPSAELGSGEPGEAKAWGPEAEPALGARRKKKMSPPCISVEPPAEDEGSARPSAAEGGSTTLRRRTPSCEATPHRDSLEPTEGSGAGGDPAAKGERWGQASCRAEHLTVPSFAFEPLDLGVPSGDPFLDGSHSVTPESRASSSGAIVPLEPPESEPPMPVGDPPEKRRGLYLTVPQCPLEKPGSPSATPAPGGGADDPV
Chain of human α1G T-type channels (O43497 whole entry): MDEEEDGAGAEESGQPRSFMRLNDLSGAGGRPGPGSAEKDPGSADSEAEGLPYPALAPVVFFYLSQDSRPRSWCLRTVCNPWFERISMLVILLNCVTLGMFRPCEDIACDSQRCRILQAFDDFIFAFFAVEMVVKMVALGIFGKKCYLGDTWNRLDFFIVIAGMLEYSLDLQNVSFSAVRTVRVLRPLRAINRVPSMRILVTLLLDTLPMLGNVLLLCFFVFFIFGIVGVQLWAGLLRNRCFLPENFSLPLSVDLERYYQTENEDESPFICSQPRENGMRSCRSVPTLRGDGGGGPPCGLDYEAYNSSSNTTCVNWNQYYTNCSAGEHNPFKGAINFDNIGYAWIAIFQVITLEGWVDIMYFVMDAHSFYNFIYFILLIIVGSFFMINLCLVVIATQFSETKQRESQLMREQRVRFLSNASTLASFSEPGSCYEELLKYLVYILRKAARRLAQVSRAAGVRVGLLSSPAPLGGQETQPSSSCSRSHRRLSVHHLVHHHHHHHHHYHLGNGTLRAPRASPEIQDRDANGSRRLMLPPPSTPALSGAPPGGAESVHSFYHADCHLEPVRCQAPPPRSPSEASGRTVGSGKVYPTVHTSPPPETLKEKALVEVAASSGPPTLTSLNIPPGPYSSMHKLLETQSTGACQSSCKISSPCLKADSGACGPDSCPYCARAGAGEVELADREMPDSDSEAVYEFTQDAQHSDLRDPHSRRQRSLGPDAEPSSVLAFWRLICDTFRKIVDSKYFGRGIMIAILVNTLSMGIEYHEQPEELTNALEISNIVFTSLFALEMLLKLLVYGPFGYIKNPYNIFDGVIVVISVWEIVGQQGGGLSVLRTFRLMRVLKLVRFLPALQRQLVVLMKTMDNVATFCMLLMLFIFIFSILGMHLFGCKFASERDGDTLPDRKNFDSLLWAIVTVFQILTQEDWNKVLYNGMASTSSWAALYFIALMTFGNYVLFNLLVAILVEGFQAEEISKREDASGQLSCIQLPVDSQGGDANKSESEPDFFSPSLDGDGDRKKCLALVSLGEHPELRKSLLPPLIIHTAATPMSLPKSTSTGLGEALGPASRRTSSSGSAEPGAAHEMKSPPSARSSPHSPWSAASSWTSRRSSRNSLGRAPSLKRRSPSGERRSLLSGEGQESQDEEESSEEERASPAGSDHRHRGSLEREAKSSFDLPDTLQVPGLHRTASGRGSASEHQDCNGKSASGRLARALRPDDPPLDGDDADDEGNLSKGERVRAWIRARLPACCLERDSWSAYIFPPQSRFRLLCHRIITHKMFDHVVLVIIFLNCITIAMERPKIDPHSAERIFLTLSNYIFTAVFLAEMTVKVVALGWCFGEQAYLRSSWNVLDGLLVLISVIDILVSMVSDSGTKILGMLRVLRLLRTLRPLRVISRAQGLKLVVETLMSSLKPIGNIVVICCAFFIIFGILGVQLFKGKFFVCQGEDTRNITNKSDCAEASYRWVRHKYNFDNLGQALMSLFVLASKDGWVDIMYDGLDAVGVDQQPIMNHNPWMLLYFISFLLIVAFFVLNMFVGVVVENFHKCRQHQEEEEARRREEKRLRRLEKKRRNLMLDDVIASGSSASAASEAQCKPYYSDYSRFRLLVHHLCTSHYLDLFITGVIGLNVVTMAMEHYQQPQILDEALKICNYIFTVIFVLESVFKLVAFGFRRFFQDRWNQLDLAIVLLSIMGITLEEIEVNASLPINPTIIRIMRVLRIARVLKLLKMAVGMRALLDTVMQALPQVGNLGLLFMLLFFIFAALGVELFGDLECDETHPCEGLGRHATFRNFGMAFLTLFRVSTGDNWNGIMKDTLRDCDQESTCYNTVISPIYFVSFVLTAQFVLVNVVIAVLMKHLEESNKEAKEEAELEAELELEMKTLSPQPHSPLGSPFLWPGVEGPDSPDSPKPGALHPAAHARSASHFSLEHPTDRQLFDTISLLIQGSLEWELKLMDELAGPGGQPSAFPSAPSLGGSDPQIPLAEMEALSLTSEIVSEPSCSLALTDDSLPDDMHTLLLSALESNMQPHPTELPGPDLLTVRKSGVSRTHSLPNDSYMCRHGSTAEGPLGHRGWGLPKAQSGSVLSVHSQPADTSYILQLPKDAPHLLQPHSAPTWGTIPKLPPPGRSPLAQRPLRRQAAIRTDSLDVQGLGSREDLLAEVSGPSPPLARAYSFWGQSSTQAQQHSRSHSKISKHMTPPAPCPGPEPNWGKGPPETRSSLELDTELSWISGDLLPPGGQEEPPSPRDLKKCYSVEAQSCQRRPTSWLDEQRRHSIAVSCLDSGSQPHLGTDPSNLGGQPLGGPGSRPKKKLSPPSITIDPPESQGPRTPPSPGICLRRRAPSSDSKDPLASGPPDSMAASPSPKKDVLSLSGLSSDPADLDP

IC50 [1]: 440 nM | activity (IC50), T-type channel block (T-type calcium channel): lowest IC50 | IC50 [2]: 8.09 µM | IC50 [3]: 9.13 µM
Structure (SMILES): COc1cc(F)cc(C(=O)N[C@H]2CC[C@H](S(=O)(=O)c3cccc(C(F)(F)F)c3)CC2)c1 [Compound 59, 3-fluoro-5-methoxy-N-((1R,4R)-4-(3-(trifluoromethyl)phenylsulfonyl)cyclohexyl)benzamide]
